Legend:
Type in all cases: in vivo
[1] = tested on: Abutilon theophrasti; assay: Test Example 4: herbicidal effect by soil treatment (symbol M)
Outline: (§1)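 Seeds were sown in sterilized diluvial soil, covered with about 1.5 cm of soil, and the soil surface was sprayed with a water-diluted emulsion of the compound at a predetermined rate. Plants grew in a greenhouse at 25° C. to 30° C.; effects were scored visually 3 weeks after application.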

[2] = tested on: corn; assay: Test Example 4: effect on crop by soil treatment (symbol c); settings: for c: corn, effect grade on crop: 320 g/ha; for c: corn, effect on crop grade: application herbicide amount 320 g/ha
Outline: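 Diluvial soil (sterilized) in boxes; seeds placed spot-wise alongside weed species; ~1.5 cm covering soil. Greenhouse, 25–30° C.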

[3] = tested on: corn; assay: Test Example 5: effect on crop by foliage application, plastic box (symbol c); settings: 320 g/ha, 3 weeks after application
Outline: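 Crop seed is sown alongside grass and broadleaf weed species in spots in sterilized diluvial soil, then covered to a depth of about 1.5 cm. Plants grow in a greenhouse kept at 25° C. to 30° C.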

[4] = tested on: Alopecurus myosuroides; assay: Test Example 5: herbicidal effect by foliage application, plastic box (symbol J); settings: 320 g/ha, 3 weeks after application
Outline: (§2)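 Leaf-applied emulsion, water-diluted to a preset herbicide dose, on two-week-old seedlings raised in a 25° C. to 30° C. greenhouse; injury rated at 3 weeks using earlier criteria.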

[5] = tested on: Digitaria ciliaris; assay: Test Example 5: herbicidal effect by foliage application, plastic box (symbol F); settings: 320 g/ha, 3 weeks after application
Outline: as §2

[6] = tested on: Echinochloa oryzacola Vasing.; assay: Test Example 2: herbicidal activity, application during weed generation in submerged conditions (symbol A); settings: Table 23; application herbicide amount 320 g/ha; grade 0-5 by criteria of Test Example 1
Outline: (§3)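 Weeds emerging under flooded conditions were treated with compound formulated as an emulsion and diluted with water to the intended herbicide amount, poured onto the surface of 4 cm standing water. Seeds had been co-sown in alluvial soil; plants grew at 25° C. to 30° C. and were assessed after 3 weeks.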

[7] = tested on: Veronica persica; assay: Test Example 5: herbicidal effect by foliage application, plastic box (symbol R); settings: 320 g/ha, 3 weeks after application
Outline: as §2

[8] = tested on: Scirpus juncoides; assay: Test Example 2: herbicidal activity, application during weed generation in submerged conditions (symbol B); settings: Table 23; application herbicide amount 320 g/ha; grade 0-5 by criteria of Test Example 1
Outline: as §3

[9] = tested on: Avena fatua; assay: Test Example 4: herbicidal effect by soil treatment (symbol I)
Outline: as §1

[10] = tested on: Alopecurus myosuroides; assay: Test Example 4: herbicidal effect by soil treatment (symbol J)
Outline: as §1

[11] = tested on: Echinochloa crus-galli var. crus-galli; assay: Test Example 3: herbicidal effect by foliage application, Wagner pot (symbol H); settings: application herbicide amount 320 g/ha; for H (Echinochloa crus-galli var. crus-galli) herbicidal effect grade: Table 24
Outline: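 Alluvial soil was flooded to a depth of 0.1–0.5 cm, seeded with the weeds and rice, and kept in a greenhouse at 25–30 °C. After 14 days of growth, the foliage received a small-sprayer application of emulsion diluted to the intended rate; injury was rated at 3 weeks.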

[12] = tested on: Amaranthus retroflexus; assay: Test Example 5: herbicidal effect by foliage application, plastic box (symbol N); settings: 320 g/ha, 3 weeks after application
Outline: as §2

[13] = tested on: transplanted rice plant; assay: Test Example 1: effect on crop, application before weed generation in submerged conditions (symbol a); settings: application herbicide amount 320 g/ha
Outline: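 Rice at 2.5 leaf stage transplanted into submerged soil (4 cm depth) sown with three weed species; herbicide applied before weed emergence.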

[14] = application herbicide amount 320 g/ha

SMILES	M: Abutilon theophrasti, herbicidal effect grade ([1]; 320 g/ha)	c: corn, effect grade on crop [2]	c: corn, effect on crop (criteria 0-5) [3]	J: Alopecurus myosuroides, herbicidal effect (criteria 0-5) [4]	F: Digitaria ciliaris, herbicidal effect (criteria 0-5) [5]	Herbicidal effect grade, A: Echinochloa oryzacola Vasing. [6]	R: Veronica persica, herbicidal effect (criteria 0-5) [7]	Herbicidal effect grade, B: Scirpus juncoides [8]	I: Avena fatua, herbicidal effect grade ([9]; 320 g/ha)	J: Alopecurus myosuroides, herbicidal effect grade ([10]; 320 g/ha)	herbicidal effect on H (Echinochloa crus-galli var. crus-galli), grade 0-5 [11]	N: Amaranthus retroflexus, herbicidal effect (criteria 0-5) [12]	Effect grade on crop, a: transplanted rice plant [13]	M: Abutilon theophrasti, herbicidal effect grade [1, 14]	c: corn, effect on crop grade [2]	c: corn, effect on crop grade [3]	J: Alopecurus myosuroides, herbicidal effect grade [4]	F: Digitaria ciliaris, herbicidal effect grade [5]	R: Veronica persica, herbicidal effect grade [7]	I: Avena fatua, herbicidal effect grade [9, 14]	further results
CC(CC1CC(O)=C(c2c(C)cc(C)cc2C)C1=O)=NOCc1ccc(C(F)(F)F)cc1 (centres unmarked) [1-138]	0 (Herbicidal ratio of 5% or lower (almost no effect))	0 (Herbicidal ratio of 5% or lower (almost no effect))	2 (Herbicidal ratio of 20% or higher and lower than 40%)	5 (Herbicidal ratio of 90% or more (almost completely withered))	5 (Herbicidal ratio of 90% or more (almost completely withered))	3 (Herbicidal ratio of 40% or higher and lower than 70%)	3 (Herbicidal ratio of 40% or higher and lower than 70%)	4 (Herbicidal ratio of 70% or higher and lower than 90%)	0 (Herbicidal ratio of 5% or lower (almost no effect))	5 (Herbicidal ratio of 90% or more (almost completely withered))	3 (Herbicidal ratio of 40% or higher and lower than 70%)	0 (Herbicidal ratio of 5% or lower (almost no effect))	5 (Herbicidal ratio of 90% or more (almost completely withered))	–	–	–	–	–	–	–	–
CON=C(CC1CC(OC(=O)C(C)(C)C)=C(c2c(C)cc(C)cc2OC)C1=O)C1CC1 (mixture of isomers) [13-006]	–	–	–	–	–	5 (Herbicidal ratio of 90% or more (almost completely withered))	–	3 (Herbicidal ratio of 40% or higher and lower than 70%)	–	–	–	–	–	5 (Herbicidal ratio of 90% or more (almost completely withered))	1 (Herbicidal ratio of 5% or higher and lower than 20%)	5 (Herbicidal ratio of 90% or more (almost completely withered))	5 (Herbicidal ratio of 90% or more (almost completely withered))	5 (Herbicidal ratio of 90% or more (almost completely withered))	2 (Herbicidal ratio of 20% or higher and lower than 40%)	0 (Herbicidal ratio of 5% or lower (almost no effect))	J: Alopecurus myosuroides, herbicidal effect grade [10, 14]: 5 (Herbicidal ratio of 90% or more (almost completely withered)); H (Echinochloa crus-galli var. crus-galli) herbicidal effect grade [11]: 5 (Herbicidal ratio of 90% or more (almost completely withered)); N: Amaranthus retroflexus, herbicidal effect grade [12]: 3 (Herbicidal ratio of 40% or higher and lower than 70%); a (transplanted rice plant) effect on crop grade [13]: 5 (Herbicidal ratio of 90% or more (almost completely withered))
CCC(CC1CC(O)=C(c2c(C)cc(C)cc2OC)C1=O)=NOC (mixture of isomers) [13-003]	–	–	–	–	–	5 (Herbicidal ratio of 90% or more (almost completely withered))	–	4 (Herbicidal ratio of 70% or higher and lower than 90%)	–	–	–	–	–	4 (Herbicidal ratio of 70% or higher and lower than 90%)	5 (Herbicidal ratio of 90% or more (almost completely withered))	5 (Herbicidal ratio of 90% or more (almost completely withered))	5 (Herbicidal ratio of 90% or more (almost completely withered))	5 (Herbicidal ratio of 90% or more (almost completely withered))	1 (Herbicidal ratio of 5% or higher and lower than 20%)	1 (Herbicidal ratio of 5% or higher and lower than 20%)	J: Alopecurus myosuroides, herbicidal effect grade [10, 14]: 5 (Herbicidal ratio of 90% or more (almost completely withered)); H (Echinochloa crus-galli var. crus-galli) herbicidal effect grade [11]: 5 (Herbicidal ratio of 90% or more (almost completely withered)); N: Amaranthus retroflexus, herbicidal effect grade [12]: 0 (Herbicidal ratio of 5% or lower (almost no effect)); a (transplanted rice plant) effect on crop grade [13]: 5 (Herbicidal ratio of 90% or more (almost completely withered))
CON=C(C)CC1CC(OC(=O)CSc2ccccc2)=C(c2c(C)cc(C)cc2C)C1=O (centres unmarked) [1-134]	3 (Herbicidal ratio of 40% or higher and lower than 70%)	5 (Herbicidal ratio of 90% or more (almost completely withered))	5 (Herbicidal ratio of 90% or more (almost completely withered))	5 (Herbicidal ratio of 90% or more (almost completely withered))	5 (Herbicidal ratio of 90% or more (almost completely withered))	5 (Herbicidal ratio of 90% or more (almost completely withered))	1 (Herbicidal ratio of 5% or higher and lower than 20%)	4 (Herbicidal ratio of 70% or higher and lower than 90%)	2 (Herbicidal ratio of 20% or higher and lower than 40%)	5 (Herbicidal ratio of 90% or more (almost completely withered))	5 (Herbicidal ratio of 90% or more (almost completely withered))	1 (Herbicidal ratio of 5% or higher and lower than 20%)	5 (Herbicidal ratio of 90% or more (almost completely withered))	–	–	–	–	–	–	–	–
CC(CC1CC(O)=C(c2c(C)cc(C)cc2C)C1=O)=NOCC(C)Br (centres unmarked) [1-135]	0 (Herbicidal ratio of 5% or lower (almost no effect))	0 (Herbicidal ratio of 5% or lower (almost no effect))	4 (Herbicidal ratio of 70% or higher and lower than 90%)	5 (Herbicidal ratio of 90% or more (almost completely withered))	5 (Herbicidal ratio of 90% or more (almost completely withered))	5 (Herbicidal ratio of 90% or more (almost completely withered))	3 (Herbicidal ratio of 40% or higher and lower than 70%)	4 (Herbicidal ratio of 70% or higher and lower than 90%)	3 (Herbicidal ratio of 40% or higher and lower than 70%)	5 (Herbicidal ratio of 90% or more (almost completely withered))	5 (Herbicidal ratio of 90% or more (almost completely withered))	0 (Herbicidal ratio of 5% or lower (almost no effect))	5 (Herbicidal ratio of 90% or more (almost completely withered))	–	–	–	–	–	–	–	–
